Measured values: US9315505B2, “Heterocyclic compounds and uses thereof” (INTELLIKINE LLC, priority 2009, dated 2016)

What follows are compounds tested on Balb/c splenic B cells (assay: B cell activation and proliferation assay (Alamar Blue)). Conditions: Mus musculus, read-out: B cell proliferation EC50.
Assay type: cell-based
Description: The ability of one or more subject compounds to inhibit B cell activation and proliferation is determined according to standard procedures known in the art. For example, an in vitro cellular proliferation assay is established that measures the metabolic activity of live cells. The assay is performed in a 96 well microtiter plate using Alamar Blue reduction. Balb/c splenic B cells are purified over a Ficoll-Paque™ PLUS gradient followed by magnetic cell separation using a MACS B cell Isolation Kit (Miletenyi). Cells are plated in 90 ul at 50,000 cells/well in B Cell Media (RPMI+10% FBS+Penn/Strep+50 uM bME+5 mM HEPES). A compound disclosed herein is diluted in B Cell Media and added in a 10 ul volume. Plates are incubated for 30 min at 37 C and 5% CO2 (0.2% DMSO final concentration). A 50 ul B cell stimulation cocktail is then added containing either 10 ug/ml LPS or 5 ug/ml F(ab′)2 Donkey anti-mouse IgM plus 2 ng/ml recombinant mouse IL4 in B Cell Media. Plates are incubated for 72 hours at 37° C. and 5% CO2. A volume of 15 uL of Alamar Blue reagent is added to each well and plates are incubated for 5 hours at 37 C and 5% CO2. Alamar Blue fluoresce is read at 560Ex/590Em, and IC50 or EC50 values are calculated using GraphPad Prism 5.

| Compound | EC50 [nM] |
| --- | --- |
| Cc1cccc2cc(C(C)Nc3ncnc4[nH]cnc34)nc(N3CCOCC3)c12 (stereo not shown) [Compound 44] | < 1000 |
| Cc1cccc2cc(C(C)Nc3ncnc4[nH]cnc34)nc(OCC3CCN(C)CC3)c12 (stereo not shown) [Compound 45] | < 100 |
| CCN1CCC(COc2nc(C(C)Nc3ncnc4[nH]cnc34)cc3cccc(C)c23)CC1 (stereo not shown) [Compound 46] | < 100 |

Same assay, conditions: Mus musculus, read-out: B cell proliferation EC50 (nM)

| Compound | EC50 [nM] |
| --- | --- |
| Cc1cccc2cc(C(C)Nc3ncnc4[nH]cnc34)nc(OC3CCN(C)CC3)c12 (stereo not shown) [Compound 15] | < 100 |

Each compound was assayed against T1, PI3K δ (Homo sapiens, UniProt O00329) (assay: In vitro IC50, PI3K δ (p110δ/p85α inhibition assay)). Conditions: not given.
T1 construct: purchased Upstate
Assay type: biochemical
Description: (§1) IC50 values are measured using either a standard TLC assay for lipid kinase activity (described below) or a high-throughput membrane capture assay. Kinase reactions are performed by preparing a reaction mixture containing kinase, inhibitor (2% DMSO final concentration), buffer (25 mM HEPES, pH 7.4, 10 mM MgCl2), and freshly sonicated phosphatidylinositol (100 μg/ml). Reactions are initiated by the addition of ATP containing 10 μCi of γ-32P-ATP to a final concentration 10 or 100 μM and allowed to proceed for 5 minutes at room temperature. For TLC analysis, reactions are then terminated by the addition of 105 μl 1N HCl followed by 160 μl CHCl3:MeOH (1:1). The biphasic mixture is vortexed, briefly centrifuged, and the organic phase is transferred to a new tube using a gel loading pipette tip precoated with CHCl3. This extract is spotted on TLC plates and developed for 3-4 hours in a 65:35 solution of n-propanol:1M acetic acid. The TLC plates are then dried, exposed to a phosphorimager screen (Storm, Amersham), and quantitated.
(§2) Other commercial kits or systems for assaying PI3-K activities are available. The commercially available kits or systems can be used to screen for inhibitors and/or agonists of PI3-Ks including but not limited to PI 3-Kinase α, β, δ, and γ. An exemplary system is PI 3-Kinase (human) HTRF™ Assay from Upstate. […] Briefly, the assay is a time resolved FRET assay that indirectly measures PIP3 product formed by the activity of a PI3-K. The kinase reaction is performed in a microtitre plate (e.g., a 384 well microtitre plate). The total reaction volume is approximately 20 ul per well. In the first step, each well receives 2 ul of test compound in 20% dimethylsulphoxide resulting in a 2% DMSO final concentration. Next, approximately 14.5 ul of a kinase/PIP2 mixture (diluted in 1× reaction buffer) is added per well for a final concentration of 0.25-0.3 ug/ml kinase and 10 uM PIP2. The plate is sealed and incubated for 15 minutes at room temperature. To start the reaction, 3.5 ul of ATP (diluted in 1× reaction buffer) is added per well for a final concentration of 10 uM ATP. The plate is sealed and incubated for 1 hour at room temperature. The reaction is stopped by adding 5 ul of Stop Solution per well and then 5 ul of Detection Mix is added per well. The plate is sealed, incubated for 1 hour at room temperature, and then read on an appropriate plate reader. Data is analyzed and IC50s are generated using GraphPad Prism 5.

T1 sequence (O00329 whole entry): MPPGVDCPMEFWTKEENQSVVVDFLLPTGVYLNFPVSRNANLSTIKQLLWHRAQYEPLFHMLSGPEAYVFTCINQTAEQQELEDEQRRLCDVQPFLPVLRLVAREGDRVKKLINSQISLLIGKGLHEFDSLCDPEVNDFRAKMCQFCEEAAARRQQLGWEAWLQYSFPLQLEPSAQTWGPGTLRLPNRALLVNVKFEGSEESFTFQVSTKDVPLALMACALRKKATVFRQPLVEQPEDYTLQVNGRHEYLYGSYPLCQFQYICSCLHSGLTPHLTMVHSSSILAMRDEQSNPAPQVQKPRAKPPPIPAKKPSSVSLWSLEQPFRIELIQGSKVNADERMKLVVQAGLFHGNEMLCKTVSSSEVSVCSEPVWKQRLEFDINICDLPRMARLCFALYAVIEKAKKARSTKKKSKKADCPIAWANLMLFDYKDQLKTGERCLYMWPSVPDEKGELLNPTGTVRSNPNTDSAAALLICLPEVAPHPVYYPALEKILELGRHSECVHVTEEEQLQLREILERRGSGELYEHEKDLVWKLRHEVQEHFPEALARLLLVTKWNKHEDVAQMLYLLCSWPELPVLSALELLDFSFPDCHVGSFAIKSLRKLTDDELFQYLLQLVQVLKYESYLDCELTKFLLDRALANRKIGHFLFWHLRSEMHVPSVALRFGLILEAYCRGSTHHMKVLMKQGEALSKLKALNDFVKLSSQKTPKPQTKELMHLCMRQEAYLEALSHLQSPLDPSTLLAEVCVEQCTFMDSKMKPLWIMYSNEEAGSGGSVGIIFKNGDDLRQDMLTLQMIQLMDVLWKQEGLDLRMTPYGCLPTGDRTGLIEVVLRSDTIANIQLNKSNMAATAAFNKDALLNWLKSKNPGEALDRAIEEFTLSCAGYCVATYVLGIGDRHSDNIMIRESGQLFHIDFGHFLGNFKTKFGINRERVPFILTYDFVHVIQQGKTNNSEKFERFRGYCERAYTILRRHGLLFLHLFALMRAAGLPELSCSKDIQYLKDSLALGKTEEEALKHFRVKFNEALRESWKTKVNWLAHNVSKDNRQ
T1 sequence (P27986 whole entry partner): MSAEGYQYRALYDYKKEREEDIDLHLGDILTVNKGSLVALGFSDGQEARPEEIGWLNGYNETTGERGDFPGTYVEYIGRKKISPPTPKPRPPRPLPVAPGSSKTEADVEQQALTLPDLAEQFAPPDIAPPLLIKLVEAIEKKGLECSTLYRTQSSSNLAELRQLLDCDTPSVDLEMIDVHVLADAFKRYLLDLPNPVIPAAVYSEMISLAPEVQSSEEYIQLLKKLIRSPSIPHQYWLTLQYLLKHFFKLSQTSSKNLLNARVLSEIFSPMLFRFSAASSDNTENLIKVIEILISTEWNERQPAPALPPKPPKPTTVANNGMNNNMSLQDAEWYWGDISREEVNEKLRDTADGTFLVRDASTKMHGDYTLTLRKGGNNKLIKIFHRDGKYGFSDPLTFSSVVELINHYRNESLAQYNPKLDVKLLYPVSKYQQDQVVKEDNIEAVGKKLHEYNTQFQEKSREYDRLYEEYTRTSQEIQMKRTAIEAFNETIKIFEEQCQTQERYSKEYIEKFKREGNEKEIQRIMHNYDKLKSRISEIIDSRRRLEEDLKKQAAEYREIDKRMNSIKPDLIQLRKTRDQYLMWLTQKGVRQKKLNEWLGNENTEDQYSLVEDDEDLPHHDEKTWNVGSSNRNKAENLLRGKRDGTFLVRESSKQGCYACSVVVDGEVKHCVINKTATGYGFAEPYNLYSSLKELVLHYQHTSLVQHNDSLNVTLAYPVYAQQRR

| IC50 [nM] | Compound |
| --- | --- |
| < 100 | Cc1cccc2cc(C(C)Nc3ncnc4[nH]cnc34)nc(OC3CCN(C)CC3)c12 (stereo not shown) [Compound 15] |

Same assay, conditions: in vitro kinase assay; read-out: IC50(nM) PI3K δ

| Compound | IC50 [nM] |
| --- | --- |
| Cc1cccc2cc(C(C)Nc3ncnc4[nH]cnc34)nc(OCC3CCN(C)CC3)c12 (stereo not shown) [Compound 45] | < 100 |
| CCN1CCC(COc2nc(C(C)Nc3ncnc4[nH]cnc34)cc3cccc(C)c23)CC1 (stereo not shown) [Compound 46] | < 100 |
| Cc1cccc2cc([C@@H](C)Nc3ncnc4[nH]cnc34)nc(OC3CCN(S(C)(=O)=O)CC3)c12 [Compound 87] | < 10000 |
| C[C@H](Nc1ncnc2[nH]cnc12)c1nc(N2CCCC2)c2c(Cl)cccc2n1 [Compound 92] | < 1000 |
| C[C@H](Nc1ncnc2[nH]cnc12)c1nc(N2CCOCC2)c2c(Cl)cccc2n1 [Compound 93] | < 10000 |
| C[C@H](Nc1ncnc2[nH]cnc12)c1nc(N2CCN(S(C)(=O)=O)CC2)c2c(Cl)cccc2n1 [Compound 94] | < 1000 |
| C[C@H](Nc1ncnc2[nH]cnc12)c1nc(OCCN2CCCC2)c2c(Cl)cccc2n1 [Compound 95] | < 100 |

Now from value to compound:

| IC50 [nM] | Compound |
| --- | --- |
| < 100 | Cc1cccc2cc(C(C)Nc3ncnc4[nH]cnc34)nc(N3CCOCC3)c12 (stereo not shown) [Compound 44] |
| < 100 | C[C@H](Nc1ncnc2[nH]cnc12)c1cc2cccc(Cl)c2c(N2CCN(S(C)(=O)=O)C[C@@H]2C)n1 [Compound 85] |
| < 1000 | C[C@H](Nc1ncnc2[nH]cnc12)c1cc2cccc(Cl)c2c(N2CCN(S(C)(=O)=O)C[C@H]2C)n1 [Compound 86] |
| < 100 | C[C@H](Nc1ncnc2[nH]cnc12)c1cc2cccc(Cl)c2c(CCN2CCC2)n1 [Compound 88] |
| < 100 | C[C@H](Nc1ncnc2[nH]cnc12)c1cc2cccc(Cl)c2c(CCN2CC(F)(F)C2)n1 [Compound 89] |
| < 100 | C[C@H](Nc1ncnc2[nH]cnc12)c1cc2cccc(Cl)c2c(CCN2CCCC2)n1 [Compound 90] |
| < 100 | C[C@H](Nc1ncnc2[nH]cnc12)c1cc2cccc(Cl)c2c(CCN2CCC(F)(F)C2)n1 [Compound 91] |
| < 1000 | CC(=O)N1CCN(c2nc([C@H](C)Nc3ncnc4[nH]cnc34)nc3cccc(Cl)c23)CC1 [Compound 96] |

What follows are compounds tested against T2, PI3K α (Homo sapiens, UniProt P42336) (assay: In vitro IC50, PI3K α (p110α/p85α inhibition assay)). Conditions: not given.
T2 construct: purchased Upstate
Assay type: biochemical
Description: as §1, §2

T2 sequence (P42336 whole entry): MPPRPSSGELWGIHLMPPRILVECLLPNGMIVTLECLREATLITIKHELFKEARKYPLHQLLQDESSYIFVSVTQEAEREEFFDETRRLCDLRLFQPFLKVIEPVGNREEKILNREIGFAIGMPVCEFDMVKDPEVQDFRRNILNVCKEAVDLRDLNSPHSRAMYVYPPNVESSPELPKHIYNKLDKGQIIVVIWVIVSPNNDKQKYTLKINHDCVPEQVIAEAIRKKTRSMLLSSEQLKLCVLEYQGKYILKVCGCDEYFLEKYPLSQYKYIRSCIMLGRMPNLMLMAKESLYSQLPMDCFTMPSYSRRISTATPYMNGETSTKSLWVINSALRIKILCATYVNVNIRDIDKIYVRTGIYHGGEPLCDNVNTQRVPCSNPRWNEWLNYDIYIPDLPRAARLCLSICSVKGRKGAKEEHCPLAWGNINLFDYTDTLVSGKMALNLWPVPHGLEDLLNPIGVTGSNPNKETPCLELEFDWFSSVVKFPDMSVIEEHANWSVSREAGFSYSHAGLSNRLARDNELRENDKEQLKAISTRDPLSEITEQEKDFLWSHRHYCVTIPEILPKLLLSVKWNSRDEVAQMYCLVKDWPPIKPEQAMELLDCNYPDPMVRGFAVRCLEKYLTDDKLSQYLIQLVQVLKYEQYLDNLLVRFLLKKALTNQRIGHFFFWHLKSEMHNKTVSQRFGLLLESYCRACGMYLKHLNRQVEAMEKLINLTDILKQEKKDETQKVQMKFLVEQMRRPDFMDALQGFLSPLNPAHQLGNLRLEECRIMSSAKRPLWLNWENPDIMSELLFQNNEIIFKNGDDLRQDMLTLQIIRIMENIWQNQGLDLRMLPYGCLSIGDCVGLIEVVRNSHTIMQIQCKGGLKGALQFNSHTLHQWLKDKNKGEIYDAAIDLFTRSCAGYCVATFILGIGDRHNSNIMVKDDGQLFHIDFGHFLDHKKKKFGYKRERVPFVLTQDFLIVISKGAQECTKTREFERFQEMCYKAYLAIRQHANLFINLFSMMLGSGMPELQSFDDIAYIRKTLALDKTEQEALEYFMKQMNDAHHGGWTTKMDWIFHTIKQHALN
T2 sequence (P27986 whole entry partner): as the sequence (P27986 whole entry partner) above

| IC50 [nM] | Compound |
| --- | --- |
| > 10000 | Cc1cccc2cc(C(C)Nc3ncnc4[nH]cnc34)nc(OC3CCN(C)CC3)c12 (stereo not shown) [Compound 15] |

Same assay, conditions: in vitro kinase assay; read-out: IC50(nM) PI3K α

| Compound | IC50 [nM] |
| --- | --- |
| Cc1cccc2cc([C@@H](C)Nc3ncnc4[nH]cnc34)nc(OC3CCN(S(C)(=O)=O)CC3)c12 [Compound 87] | > 10000 |
| C[C@H](Nc1ncnc2[nH]cnc12)c1nc(N2CCCC2)c2c(Cl)cccc2n1 [Compound 92] | > 10000 |
| C[C@H](Nc1ncnc2[nH]cnc12)c1nc(N2CCOCC2)c2c(Cl)cccc2n1 [Compound 93] | > 10000 |
| C[C@H](Nc1ncnc2[nH]cnc12)c1nc(N2CCN(S(C)(=O)=O)CC2)c2c(Cl)cccc2n1 [Compound 94] | > 10000 |
| C[C@H](Nc1ncnc2[nH]cnc12)c1nc(OCCN2CCCC2)c2c(Cl)cccc2n1 [Compound 95] | < 10000 |

Results, then the compound that gave them:

| IC50 [nM] | Compound |
| --- | --- |
| < 1000 | C[C@H](Nc1ncnc2[nH]cnc12)c1cc2cccc(Cl)c2c(N2CCN(S(C)(=O)=O)C[C@@H]2C)n1 [Compound 85] |
| > 10000 | C[C@H](Nc1ncnc2[nH]cnc12)c1cc2cccc(Cl)c2c(N2CCN(S(C)(=O)=O)C[C@H]2C)n1 [Compound 86] |
| < 10000 | C[C@H](Nc1ncnc2[nH]cnc12)c1cc2cccc(Cl)c2c(CCN2CCC2)n1 [Compound 88] |
| < 10000 | C[C@H](Nc1ncnc2[nH]cnc12)c1cc2cccc(Cl)c2c(CCN2CC(F)(F)C2)n1 [Compound 89] |
| < 10000 | C[C@H](Nc1ncnc2[nH]cnc12)c1cc2cccc(Cl)c2c(CCN2CCCC2)n1 [Compound 90] |
| < 10000 | C[C@H](Nc1ncnc2[nH]cnc12)c1cc2cccc(Cl)c2c(CCN2CCC(F)(F)C2)n1 [Compound 91] |
| > 10000 | CC(=O)N1CCN(c2nc([C@H](C)Nc3ncnc4[nH]cnc34)nc3cccc(Cl)c23)CC1 [Compound 96] |

Each compound was assayed against T3, PI3K γ (Homo sapiens, UniProt P48736) (assay: In vitro IC50, PI3K γ (p110γ inhibition assay)). Conditions: in vitro kinase assay.
T3 construct: purchased Sigma
Assay type: biochemical
Description: as §1, with “Class I PI3-Ks can be either purchased (p110α/p85α, p110β/p85α, p110δ/p85α from Upstate, and p110γ from Sigma) or expressed as previously described (Knight et al., 2004). IC50” for “IC50”, “quantitated. For each compound, kinase activity is measured at 10-12 inhibitor concentrations representing two-fold dilutions from the highest concentration tested (typically, 200 μM).” for “quantitated.”
as §2

T3 sequence (P48736 whole entry): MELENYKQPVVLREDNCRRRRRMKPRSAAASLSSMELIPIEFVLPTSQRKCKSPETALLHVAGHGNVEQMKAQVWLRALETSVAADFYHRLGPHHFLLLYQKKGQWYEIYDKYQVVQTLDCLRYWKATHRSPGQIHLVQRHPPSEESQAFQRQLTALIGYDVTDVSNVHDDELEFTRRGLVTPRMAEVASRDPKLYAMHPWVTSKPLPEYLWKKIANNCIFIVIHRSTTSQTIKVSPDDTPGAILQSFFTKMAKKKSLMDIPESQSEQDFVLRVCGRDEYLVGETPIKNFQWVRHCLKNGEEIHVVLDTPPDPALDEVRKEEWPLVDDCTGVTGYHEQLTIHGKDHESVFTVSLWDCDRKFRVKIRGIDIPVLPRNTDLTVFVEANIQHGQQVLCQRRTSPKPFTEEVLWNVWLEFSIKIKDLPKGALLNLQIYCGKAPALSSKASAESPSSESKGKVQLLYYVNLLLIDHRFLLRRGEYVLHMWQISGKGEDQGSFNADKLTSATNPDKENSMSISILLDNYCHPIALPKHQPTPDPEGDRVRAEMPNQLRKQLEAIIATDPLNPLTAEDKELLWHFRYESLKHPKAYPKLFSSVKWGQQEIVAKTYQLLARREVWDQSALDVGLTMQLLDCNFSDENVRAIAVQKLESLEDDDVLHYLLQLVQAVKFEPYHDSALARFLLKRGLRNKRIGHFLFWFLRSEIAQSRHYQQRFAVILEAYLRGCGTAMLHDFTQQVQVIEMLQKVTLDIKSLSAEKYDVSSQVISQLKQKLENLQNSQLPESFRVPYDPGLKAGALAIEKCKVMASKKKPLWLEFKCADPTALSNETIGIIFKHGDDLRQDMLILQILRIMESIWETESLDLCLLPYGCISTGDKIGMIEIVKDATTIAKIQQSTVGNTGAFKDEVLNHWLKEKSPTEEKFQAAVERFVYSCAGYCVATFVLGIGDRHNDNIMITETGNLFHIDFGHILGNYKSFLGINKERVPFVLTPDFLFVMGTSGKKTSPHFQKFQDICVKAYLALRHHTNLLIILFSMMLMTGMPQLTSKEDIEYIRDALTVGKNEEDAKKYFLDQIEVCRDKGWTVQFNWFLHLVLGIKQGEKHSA

| Compound | IC50 [nM] |
| --- | --- |
| Cc1cccc2cc(C(C)Nc3ncnc4[nH]cnc34)nc(OC3CCN(C)CC3)c12 (stereo not shown) [Compound 15] | > 10000 |
| Cc1cccc2cc(C(C)Nc3ncnc4[nH]cnc34)nc(OCC3CCN(C)CC3)c12 (stereo not shown) [Compound 45] | > 10000 |
| CCN1CCC(COc2nc(C(C)Nc3ncnc4[nH]cnc34)cc3cccc(C)c23)CC1 (stereo not shown) [Compound 46] | > 10000 |
| Cc1cccc2cc([C@@H](C)Nc3ncnc4[nH]cnc34)nc(OC3CCN(S(C)(=O)=O)CC3)c12 [Compound 87] | > 10000 |
| C[C@H](Nc1ncnc2[nH]cnc12)c1nc(N2CCCC2)c2c(Cl)cccc2n1 [Compound 92] | > 10000 |
| C[C@H](Nc1ncnc2[nH]cnc12)c1nc(N2CCOCC2)c2c(Cl)cccc2n1 [Compound 93] | > 10000 |
| C[C@H](Nc1ncnc2[nH]cnc12)c1nc(N2CCN(S(C)(=O)=O)CC2)c2c(Cl)cccc2n1 [Compound 94] | < 10000 |
| C[C@H](Nc1ncnc2[nH]cnc12)c1nc(OCCN2CCCC2)c2c(Cl)cccc2n1 [Compound 95] | < 10000 |

The remaining lines, values ahead:

| IC50 [nM] | Compound |
| --- | --- |
| < 10000 | Cc1cccc2cc(C(C)Nc3ncnc4[nH]cnc34)nc(N3CCOCC3)c12 (stereo not shown) [Compound 44] |
| < 100 | C[C@H](Nc1ncnc2[nH]cnc12)c1cc2cccc(Cl)c2c(N2CCN(S(C)(=O)=O)C[C@@H]2C)n1 [Compound 85] |
| < 1000 | C[C@H](Nc1ncnc2[nH]cnc12)c1cc2cccc(Cl)c2c(N2CCN(S(C)(=O)=O)C[C@H]2C)n1 [Compound 86] |
| < 10000 | C[C@H](Nc1ncnc2[nH]cnc12)c1cc2cccc(Cl)c2c(CCN2CCC2)n1 [Compound 88] |
| < 1000 | C[C@H](Nc1ncnc2[nH]cnc12)c1cc2cccc(Cl)c2c(CCN2CC(F)(F)C2)n1 [Compound 89] |
| < 10000 | C[C@H](Nc1ncnc2[nH]cnc12)c1cc2cccc(Cl)c2c(CCN2CCCC2)n1 [Compound 90] |
| < 10000 | C[C@H](Nc1ncnc2[nH]cnc12)c1cc2cccc(Cl)c2c(CCN2CCC(F)(F)C2)n1 [Compound 91] |
| < 1000 | CC(=O)N1CCN(c2nc([C@H](C)Nc3ncnc4[nH]cnc34)nc3cccc(Cl)c23)CC1 [Compound 96] |
